Experimental data reported in ChEMBL document CHEMBL6096735, “Exploring the Ascorbate Requirement of the 2-Oxoglutarate-Dependent Dioxygenases” (J Med Chem, 2025).

Target: Methylcytosine dioxygenase TET2 (Homo sapiens) (UniProt Q6N021)
Assay: Binding affinity to TET2 (unknown origin) assessed as binding constant

| Kb | SMILES |
| --- | --- |
| 8.7 10^3/M | O=C1O[C@H]([C@H](O)CO)C(O)=C1O |
| 8.7 10^3/M | O=C1O[C@H]([C@@H](O)CO)C(O)=C1O |
